Values quoted from earlier work in article PMC10643470, “Knockout or inhibition of USP30 protects dopaminergic neurons in a Parkinson’s disease mouse model” (Nature Communications, 2023).

What was measured:
USP30 = details: cited from earlier work
[1] = system: SHSY5Y neuroblastoma cells; parameters: method as in PMID 32636217; details: SHSY5Y neuroblastoma cells ref 42; cited from earlier work
[2] = system: SHSY5Y neuroblastoma cells; parameters: method as in PMID 32636217; details: SHSY5Y neuroblastoma cells ref 42; cited from earlier work; remark: listed apart in the source

| Compound | USP30 inhibition in biochemical assays (USP30) | Ubiquitylation of TOM20 [1] | Mitophagy levels [2] |
| --- | --- | --- | --- |
| CC(C)(C)NS(=O)(=O)c1cccc2c(NC(=O)[C@H](Cc3ccccc3)NC(=O)C3CC3)cccc12 [MF-095] | identified as USP30 inhibitors | – | – |
| CC(C)(C)NS(=O)(=O)c1cccc2c(NC(=O)[C@H](Cc3ccccc3)NC(=O)C3CCCCC3)cccc12 [MF-094] | identified as USP30 inhibitors | – | – |
| N#CN1CC[C@@H](NC(=O)c2cc(-c3ccccc3Oc3ccccc3)n[nH]2)C1 [FT3967385] | – | significantly increases | significantly increases |
